Patent US8273759B2, “Fungicide heterocyclyl-pyrimidinyl-amino derivatives” (Bayer Cropscience AG, priority 2007, dated 2012)

system: Pyricularia grisea; assay: not given; type: in vivo; conditions: 500 ppm; rice plants sprayed 24 hours before contamination; grading 6 days after contamination

With `CCC(COC)Nc1cc(-c2ccnc(Nc3ccnc(Cl)c3)n2)ccn1` (stereo not shown) [Compound 9, N-(2-chloropyridin-4-yl)-4-(2-{[1-(methoxymethyl)propyl]amino}pyridin-4-yl)pyrimidin-2-amine] the “protection (good, at least 70%, or total), % of efficacy” value was “at least 70%”.

system: not listed separately; assay: log P by reversed-phase HPLC (EEC Directive 79/831 Annex V.A8); type: physicochemical; conditions: reversed-phase C 18, 40° C., 0.1% aqueous formic acid and acetonitrile gradient
Procedure: Temperature: 40° C.; Mobile phases: 0.1% aqueous formic acid and acetonitrile; linear gradient from 10% acetonitrile to 90% acetonitrile.

Point of comparison: `COc1ccc(Nc2nccc(-c3ccnc(NC4COC4)c3)n2)cn1` [Compound 36], “log PHCOOH” value 1.10. Against it:
- COc1ccc(Nc2nccc(-c3ccnc(N(C)C)c3)n2)cn1 [Compound 1] — within 0.2 log units, 1.24
- CCC(CO)Nc1cc(-c2ccnc(Nc3ccc(OC)nc3)n2)ccn1 (stereo not shown) [Compound 2] — higher, 1.35
- c1cc(Nc2nccc(-c3ccnc(NC4CCC4)c3)n2)nc(NC2CCC2)c1 [Compound 3] — within 0.2 log units, 1.12
- c1cc(Nc2nccc(-c3ccnc(NC4CCCCC4)c3)n2)nc(NC2CCCCC2)c1 [Compound 4] — higher, 1.70
- c1cc(Nc2nccc(-c3ccnc(NCC4CC4)c3)n2)cc(NCC2CC2)n1 [Compound 5] — within 0.2 log units, 0.97
- COCCCNc1cc(-c2ccnc(Nc3cccc(NCCCOC)n3)n2)ccn1 [Compound 6] — lower, 0.83
- c1cc(NCC2CCCO2)nc(Nc2nccc(-c3ccnc(NCC4CCCO4)c3)n2)c1 (stereo not shown) [Compound 7] — lower, 0.86
- Clc1cc(Nc2nccc(-c3ccnc(NC4CCCCC4)c3)n2)ccn1 [Compound 8] — higher, 1.64
- CC(C)C(C)Nc1cc(-c2ccnc(Nc3ccnc(Cl)c3)n2)ccn1 (stereo not shown) [Compound 10] — higher, 1.66
- Clc1cc(Nc2nccc(-c3ccnc(NC4CCC4)c3)n2)ccn1 [Compound 11] — higher, 1.45
- CCCC(C)Nc1cc(-c2ccnc(Nc3ccnc(Cl)c3)n2)ccn1 (stereo not shown) [Compound 12] — higher, 1.72
- CCC(CC)Nc1cc(-c2ccnc(Nc3ccnc(Cl)c3)n2)ccn1 [Compound 13] — higher, 1.64
- Clc1cc(Nc2nccc(-c3ccnc(NC4CCCC4)c3)n2)ccn1 [Compound 14] — higher, 1.58
- c1cc(Nc2nccc(-c3ccnc(NC4CCCCC4)c3)n2)cc(NC2CCCCC2)n1 [Compound 15] — higher, 1.52
- c1cc(NCC2CC2)nc(Nc2nccc(-c3ccnc(NCC4CC4)c3)n2)c1 [Compound 16] — within 0.2 log units, 0.96
- CCCCCNc1cc(Nc2nccc(-c3ccnc(NCCCCC)c3)n2)ccn1 [Compound 17] — higher, 1.57
- CC(C)C(C)Nc1cc(Nc2nccc(-c3ccnc(NC(C)C(C)C)c3)n2)ccn1 (stereo not shown) [Compound 18] — higher, 1.34
- c1cc(Nc2nccc(-c3ccnc(NC4CCC4)c3)n2)cc(NC2CCC2)n1 [Compound 19] — within 0.2 log units, 1.05
- CCCC(C)Nc1cc(Nc2nccc(-c3ccnc(NC(C)CCC)c3)n2)ccn1 (stereo not shown) [Compound 20] — higher, 1.43
- CCC(CC)Nc1cc(Nc2nccc(-c3ccnc(NC(CC)CC)c3)n2)ccn1 [Compound 21] — higher, 1.33
- c1cc(Nc2nccc(-c3ccnc(NC4CCCC4)c3)n2)cc(NC2CCCC2)n1 [Compound 22] — within 0.2 log units, 1.22
- CCC(C)Nc1cc(Nc2nccc(-c3ccnc(NC(C)CC)c3)n2)ccn1 (stereo not shown) [Compound 23] — the same, 1.10
- CCC(CC)Nc1cc(-c2ccnc(Nc3cccc(Cl)n3)n2)ccn1 [Compound 24] — higher, 2.09
- CCC(C)Nc1cc(-c2ccnc(Nc3cccc(Cl)n3)n2)ccn1 (stereo not shown) [Compound 25] — higher, 2.00
- CC(C)C(C)Nc1cc(-c2ccnc(Nc3cccc(Cl)n3)n2)ccn1 (stereo not shown) [Compound 26] — higher, 2.15
- Clc1cccc(Nc2nccc(-c3ccnc(NCC4CCCO4)c3)n2)n1 (stereo not shown) [Compound 27] — higher, 1.64
- CC(CN(C)C)Nc1cc(-c2ccnc(Nc3cccc(Cl)n3)n2)ccn1 (stereo not shown) [Compound 28] — higher, 1.42
- CCC(COC)Nc1cc(-c2ccnc(Nc3cccc(Cl)n3)n2)ccn1 (stereo not shown) [Compound 29] — higher, 1.85
- CCC(CC)Nc1cc(-c2ccnc(Nc3cccc(NC(CC)CC)n3)n2)ccn1 [Compound 30] — higher, 1.47
- c1cc(Nc2nccc(-c3ccnc(NC4CCCC4)c3)n2)nc(NC2CCCC2)c1 [Compound 31] — within 0.2 log units, 1.23
- CCC(C)Nc1cc(-c2ccnc(Nc3cccc(NC(C)CC)n3)n2)ccn1 (stereo not shown) [Compound 32] — within 0.2 log units, 1.23
- CC(C)C(C)Nc1cc(-c2ccnc(Nc3cccc(NC(C)C(C)C)n3)n2)ccn1 (stereo not shown) [Compound 33] — higher, 1.43
- CCC(COC)Nc1cc(Nc2nccc(-c3ccnc(NC(CC)COC)c3)n2)ccn1 (stereo not shown) [Compound 34] — the same, 1.10
- COCC(C)Nc1cc(-c2ccnc(Nc3ccnc(Cl)c3)n2)ccn1 (stereo not shown) [Compound 35] — higher, 1.34
- COCC(C)Nc1cc(-c2ccnc(Nc3ccc(OC)nc3)n2)ccn1 (stereo not shown) [Compound 38] — within 0.2 log units, 1.29
- CCC(C)Nc1cc(-c2ccnc(Nc3ccc(OC)nc3)n2)ccn1 (stereo not shown) [Compound 39] — higher, 1.48
- COc1ccc(Nc2nccc(-c3ccnc(NCC(C)C)c3)n2)cn1 [Compound 46] — higher, 1.42

same assay, conditions: reversed-phase C18 HPLC column, reversed-phase C 18, 40° C., 0.1% aqueous formic acid and acetonitrile gradient, read-out: log PHCOOH

For `CCC(COC)Nc1cc(-c2ccnc(Nc3ccnc(Cl)c3)n2)ccn1` (stereo not shown) [Compound 9, N-(2-chloropyridin-4-yl)-4-(2-{[1-(methoxymethyl)propyl]amino}pyridin-4-yl)pyrimidin-2-amine], the chromatographic logP was 1.37.
